In article PMC12136037, “Type II kinase inhibitors that target Parkinson’s disease–associated LRRK2” (Science Advances, 2025):

Target: T1, LRRK2^KW (Homo sapiens, UniProt Q5S007)
T1 construct: LRRK2 R1847 to E2527; His6-Z-tag (TEV cleavable) (N, cleaved yes); host or cells: Sf9 insect cells (baculovirus)
T1 sequence (Q5S007 1847-2527): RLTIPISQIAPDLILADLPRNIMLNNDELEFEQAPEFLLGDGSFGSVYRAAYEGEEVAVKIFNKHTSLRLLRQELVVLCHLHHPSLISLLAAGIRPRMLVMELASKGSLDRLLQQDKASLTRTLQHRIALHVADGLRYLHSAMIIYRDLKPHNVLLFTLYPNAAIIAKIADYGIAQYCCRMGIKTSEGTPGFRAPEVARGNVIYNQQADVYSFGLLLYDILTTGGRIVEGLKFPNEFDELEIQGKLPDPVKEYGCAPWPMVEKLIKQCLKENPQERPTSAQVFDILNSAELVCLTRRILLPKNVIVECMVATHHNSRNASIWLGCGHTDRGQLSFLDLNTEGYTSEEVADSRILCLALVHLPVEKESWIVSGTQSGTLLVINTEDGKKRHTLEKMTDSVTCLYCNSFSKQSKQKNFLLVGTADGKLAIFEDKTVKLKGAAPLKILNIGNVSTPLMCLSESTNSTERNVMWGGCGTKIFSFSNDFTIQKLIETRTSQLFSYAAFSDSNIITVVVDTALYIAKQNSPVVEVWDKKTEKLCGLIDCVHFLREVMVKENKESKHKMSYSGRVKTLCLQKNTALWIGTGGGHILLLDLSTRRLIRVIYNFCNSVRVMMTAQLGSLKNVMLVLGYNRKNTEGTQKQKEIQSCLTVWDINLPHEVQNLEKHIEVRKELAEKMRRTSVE
Test: DSF thermal stabilization of LRRK2^KW
Assay type: binding
Conditions: screen of 31 type-II inhibitors, Table S1
Procedure: To characterize binding between small molecules and LRRK2^KW, induced thermal stabilization was measured by DSF according to previously established protocols ([47]). In brief, LRRK2^KW was diluted to 4 μM in 20 mM Hepes (pH 7.4), 150 mM NaCl, 0.5 mM TCEP, 0.5% glycerol, 20 μM GDP, and 2.5 mM MgCl2, and SYPRO Orange was added (1:1000, MilliporeSigma). Inhibitor (10 μM) to be tested was added to a final sample volume of 20 μl per well of a 96-well plate (white, Starlab). […] The fluorescence was plotted against the temperature, and the melting point (Tm) was determined as the minimum of the first derivative relative to the control.

| dTm LRRK2(KW) [K] | SMILES |
| --- | --- |
| 3.5 K | CC(C)(C)c1cc(NC(=O)Nc2ccc(-c3cn4c(n3)sc3cc(OCCN5CCOCC5)ccc34)cc2)no1 [Quizartinib, reference compound] |
| 4.5 K | Cc1csc(-c2nnc(Nc3ccc(Oc4ncccc4-c4ccnc(N)n4)cc3)c3ccccc23)c1 [AMG 900, reference compound] |
| 7.5 K | COc1cc2nccc(Oc3ccc(NC(=O)C4(C(=O)Nc5ccc(F)cc5)CC4)cc3)c2cc1OC [Cabozantinib, reference compound] |
| 5.5 K | CNC(=O)c1cc(Oc2ccc(NC(=O)Nc3ccc(Cl)c(C(F)(F)F)c3)c(F)c2)ccn1 [Regorafinib, reference compound] |
| 10 K | CCN1CCN(Cc2ccc(NC(=O)Nc3ccc(Oc4cc(NC)ncn4)cc3)cc2C(F)(F)F)CC1 [AST-487, reference compound] |
| -0.5 K | Cc1ccc(NC(=O)c2cccc(C(C)(C)C#N)c2)cc1Nc1ccc2ncn(C)c(=O)c2c1 [AZ 628, reference compound] |
| 5 K | COC(=O)c1ccc2c(c1)NC(=O)/C2=C(\Nc1ccc(N(C)C(=O)CN2CCN(C)CC2)cc1)c1ccccc1 [Nintedanib, reference compound] |
| 6.5 K | COc1cc2c(Nc3ccc(NC(=O)c4ccccc4)cc3)ncnc2cc1OCCCN1CCOCC1 [ZM447439, reference compound] |
| -0.5 K | CC1(C)CNc2cc(NC(=O)c3cccnc3NCc3ccncc3)ccc21 [Motesanib, reference compound] |
| 0 K | O=C(Nc1ccc(OC(F)(F)F)cc1)c1sccc1NCc1ccnc2ccccc12 [OSI-930, reference compound] |
| 5.8 K | Cc1ccc(F)c(NC(=O)Nc2ccc(-c3cccc4[nH]nc(N)c34)cc2)c1 [Linifanib, reference compound] |
| 0.5 K | CN1CCN(C2CCN(C(=O)Nc3cc(Oc4ccc(NC(=O)C5(C(=O)Nc6ccc(F)cc6)CC5)c(F)c4)ccn3)CC2)CC1 [Golvatinib, reference compound] |
| 6.8 K | FC(F)(F)c1ccc(CNc2ccc(Cc3c[nH]c4ncc(Cl)cc34)cn2)cn1 [Pexidartinib, reference compound] |
| 6.8 K | CCOc1ccn(-c2ccc(F)cc2)c(=O)c1C(=O)Nc1ccc(Oc2ccnc(N)c2Cl)c(F)c1 [BMS 777607, reference compound] |
| -2.5 K | Cc1cn(-c2cc(NC(=O)c3ccc(C)c(Nc4nccc(-c5cccnc5)n4)c3)cc(C(F)(F)F)c2)cn1 [Nilotinib, reference compound] |
| -0.5 K | Cc1ccc(C(=O)Nc2cccc(C(F)(F)F)c2)cc1Nc1nc(-c2cccnc2)nc2c1cnn2C [NVP-BHG712, reference compound] |
| 3 K | COc1cc(Oc2ccnc3cc(OC)c(OC)cc23)ccc1NC(=O)NC(C)c1nccs1 (stereo not drawn) [KI20227, reference compound] |
| 11.5 K | COc1cc2nccc(Oc3ccc(NC(=O)Nc4cc(C)on4)c(Cl)c3)c2cc1OC [Tivozanib (AV-951), reference compound] |
| -1 K | N#CC1(c2ccc(NC(=O)c3cccnc3NCc3ccncc3)cc2)CCCC1 [Apatinib, reference compound] |
| -0.5 K | CCN1CCN(Cc2ccc(NC(=O)c3ccc(C)c(NC(=O)c4cncc(-c5cccs5)c4)c3)cc2C(F)(F)F)CC1 [ALW-II-41-27, reference compound] |
| 11 K | Cc1ccc(-n2nc(C(C)(C)C)cc2NC(=O)Nc2cc(COc3cccnc3)[nH]n2)cc1 [PF-4618433, reference compound] |
| 7.5 K | CNC(=O)c1ccccc1Sc1ccc2c(/C=C/c3ccccn3)n[nH]c2c1 [Axitinib, reference compound] |
| 0 K | Cc1ccc(-n2nc(C(C)(C)C)cc2NC(=O)Nc2ccc(OCCN3CCOCC3)c3ccccc23)cc1 [BIRB-796, reference compound] |
| 0 K | Cc1ccc(NC(=O)c2ccc(CN3CCN(C)CC3)cc2)cc1Nc1nccc(-c2cccnc2)n1 [Imatinib, reference compound] |
